In publication PMC9030254, “Target Hopping from Protein Kinases to PXR: Identification of Small-Molecule Protein Kinase Inhibitors as Selective Modulators of Pregnane X Receptor from TüKIC Library” (Cells, 2022):

How the values were obtained:
Test in all cases: Kinase profiling
Assay type in all cases: biochemical
CAMK2D = biological target: T1, CAMK2D (Homo sapiens, UniProt Q13557)
T1 construct: purchased ProQinase (Freiburg, Germany)
Protocol: (§1) The analysis was performed by ProQinase (Freiburg, Germany).

CDK4/CycD1 = biological target: T2, CDK4/CycD1 (Homo sapiens, UniProt P11802)
T2 construct: purchased ProQinase (Freiburg, Germany)
T2 sequence (P11802 whole entry): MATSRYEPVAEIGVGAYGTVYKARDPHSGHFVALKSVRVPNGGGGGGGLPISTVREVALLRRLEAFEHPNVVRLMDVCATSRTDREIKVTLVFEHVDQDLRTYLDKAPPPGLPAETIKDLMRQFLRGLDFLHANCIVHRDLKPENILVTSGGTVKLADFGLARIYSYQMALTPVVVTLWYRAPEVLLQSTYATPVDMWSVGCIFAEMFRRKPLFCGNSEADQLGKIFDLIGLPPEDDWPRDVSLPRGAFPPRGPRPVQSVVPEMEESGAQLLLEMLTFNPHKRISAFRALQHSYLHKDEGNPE
T2 sequence (P24385 whole entry partner): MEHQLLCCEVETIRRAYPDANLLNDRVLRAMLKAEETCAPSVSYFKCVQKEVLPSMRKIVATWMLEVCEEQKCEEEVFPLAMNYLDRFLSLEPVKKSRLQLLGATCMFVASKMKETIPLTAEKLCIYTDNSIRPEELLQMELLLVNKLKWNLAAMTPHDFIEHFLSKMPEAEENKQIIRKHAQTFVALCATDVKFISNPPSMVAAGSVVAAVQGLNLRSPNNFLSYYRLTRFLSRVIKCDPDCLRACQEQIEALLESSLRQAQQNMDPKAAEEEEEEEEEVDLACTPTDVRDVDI
Protocol: as §1

CDK6/CycD3 = biological target: T3, CDK6/CycD3 (Homo sapiens, UniProt Q00534)
T3 construct: purchased ProQinase (Freiburg, Germany)
T3 sequence (Q00534 whole entry): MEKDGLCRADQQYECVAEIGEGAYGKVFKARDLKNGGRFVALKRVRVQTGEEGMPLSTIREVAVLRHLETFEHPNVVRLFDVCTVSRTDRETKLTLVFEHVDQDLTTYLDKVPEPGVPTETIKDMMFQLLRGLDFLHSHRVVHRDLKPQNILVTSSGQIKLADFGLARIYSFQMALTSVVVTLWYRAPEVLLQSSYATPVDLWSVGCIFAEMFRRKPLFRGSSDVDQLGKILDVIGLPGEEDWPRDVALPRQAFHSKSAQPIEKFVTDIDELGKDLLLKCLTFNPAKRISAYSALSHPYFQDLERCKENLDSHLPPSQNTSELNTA
T3 sequence (P30281 whole entry partner): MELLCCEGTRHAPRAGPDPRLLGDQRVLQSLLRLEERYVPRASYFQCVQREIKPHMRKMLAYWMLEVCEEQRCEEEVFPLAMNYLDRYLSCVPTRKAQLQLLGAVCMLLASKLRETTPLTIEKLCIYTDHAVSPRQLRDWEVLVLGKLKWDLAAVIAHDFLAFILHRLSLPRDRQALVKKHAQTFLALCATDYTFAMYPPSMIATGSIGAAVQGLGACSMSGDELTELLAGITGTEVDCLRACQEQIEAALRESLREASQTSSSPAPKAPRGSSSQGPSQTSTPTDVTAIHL
Protocol: as §1

DAPK2 = biological target: T4, DAPK2 (Homo sapiens, UniProt Q9UIK4)
T4 construct: purchased ProQinase (Freiburg, Germany)
T4 sequence (Q9UIK4 whole entry): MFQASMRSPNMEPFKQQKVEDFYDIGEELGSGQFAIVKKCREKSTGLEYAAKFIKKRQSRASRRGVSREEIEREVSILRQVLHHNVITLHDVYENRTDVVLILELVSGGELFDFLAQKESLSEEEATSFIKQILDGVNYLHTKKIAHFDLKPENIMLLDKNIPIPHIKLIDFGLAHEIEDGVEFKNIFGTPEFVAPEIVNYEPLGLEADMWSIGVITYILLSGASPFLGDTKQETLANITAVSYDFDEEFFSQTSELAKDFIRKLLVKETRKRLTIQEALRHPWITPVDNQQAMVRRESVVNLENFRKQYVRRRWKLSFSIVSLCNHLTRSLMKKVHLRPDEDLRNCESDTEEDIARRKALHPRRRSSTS
Protocol: as §1

DYRK1B = biological target: T5, DYRK1B (Homo sapiens, UniProt Q9Y463)
T5 construct: purchased ProQinase (Freiburg, Germany)
Protocol: as §1

HIPK3 = biological target: T6, HIPK3 (Homo sapiens, UniProt Q9H422)
T6 construct: purchased ProQinase (Freiburg, Germany)
Protocol: as §1

IGF1R = biological target: T7, IGF1R (Homo sapiens, UniProt P08069)
T7 construct: purchased ProQinase (Freiburg, Germany)
T7 sequence (P08069 31-1367): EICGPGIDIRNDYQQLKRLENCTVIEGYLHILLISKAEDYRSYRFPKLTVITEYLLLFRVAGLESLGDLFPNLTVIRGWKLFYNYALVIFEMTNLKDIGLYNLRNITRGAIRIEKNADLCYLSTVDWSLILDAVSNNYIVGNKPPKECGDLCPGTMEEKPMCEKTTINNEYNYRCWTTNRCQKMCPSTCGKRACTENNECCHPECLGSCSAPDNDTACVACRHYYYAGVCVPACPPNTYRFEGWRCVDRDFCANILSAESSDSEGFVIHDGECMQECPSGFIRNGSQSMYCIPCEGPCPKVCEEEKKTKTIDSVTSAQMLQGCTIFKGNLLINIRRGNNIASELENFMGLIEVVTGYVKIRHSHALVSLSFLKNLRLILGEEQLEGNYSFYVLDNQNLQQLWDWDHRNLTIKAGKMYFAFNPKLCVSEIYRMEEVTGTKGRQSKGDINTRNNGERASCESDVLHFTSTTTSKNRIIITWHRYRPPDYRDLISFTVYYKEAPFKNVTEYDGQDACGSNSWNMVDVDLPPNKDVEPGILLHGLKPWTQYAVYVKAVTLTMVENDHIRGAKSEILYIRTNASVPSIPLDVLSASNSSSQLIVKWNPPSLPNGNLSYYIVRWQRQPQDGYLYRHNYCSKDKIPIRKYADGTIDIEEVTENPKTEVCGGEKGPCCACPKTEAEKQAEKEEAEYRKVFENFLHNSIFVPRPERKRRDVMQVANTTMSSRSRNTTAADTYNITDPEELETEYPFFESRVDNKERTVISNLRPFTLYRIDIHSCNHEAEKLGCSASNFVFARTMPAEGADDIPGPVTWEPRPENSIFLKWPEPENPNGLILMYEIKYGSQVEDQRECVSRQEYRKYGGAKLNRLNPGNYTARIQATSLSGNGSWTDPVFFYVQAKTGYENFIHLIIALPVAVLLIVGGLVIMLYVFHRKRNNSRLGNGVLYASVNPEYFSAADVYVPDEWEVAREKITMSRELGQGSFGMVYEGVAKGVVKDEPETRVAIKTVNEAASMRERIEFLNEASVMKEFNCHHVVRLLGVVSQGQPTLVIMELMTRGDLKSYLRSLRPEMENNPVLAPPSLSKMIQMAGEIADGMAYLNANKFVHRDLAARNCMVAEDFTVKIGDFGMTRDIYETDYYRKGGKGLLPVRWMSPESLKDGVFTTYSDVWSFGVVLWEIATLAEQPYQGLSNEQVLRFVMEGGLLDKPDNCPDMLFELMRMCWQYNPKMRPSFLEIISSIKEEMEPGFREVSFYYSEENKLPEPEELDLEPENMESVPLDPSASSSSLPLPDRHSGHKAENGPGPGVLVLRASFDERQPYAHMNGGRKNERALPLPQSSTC
Protocol: as §1

MEKK3 = biological target: T8, MEKK3 (Homo sapiens, UniProt Q99759)
T8 construct: purchased ProQinase (Freiburg, Germany)
T8 sequence (Q99759 1-626): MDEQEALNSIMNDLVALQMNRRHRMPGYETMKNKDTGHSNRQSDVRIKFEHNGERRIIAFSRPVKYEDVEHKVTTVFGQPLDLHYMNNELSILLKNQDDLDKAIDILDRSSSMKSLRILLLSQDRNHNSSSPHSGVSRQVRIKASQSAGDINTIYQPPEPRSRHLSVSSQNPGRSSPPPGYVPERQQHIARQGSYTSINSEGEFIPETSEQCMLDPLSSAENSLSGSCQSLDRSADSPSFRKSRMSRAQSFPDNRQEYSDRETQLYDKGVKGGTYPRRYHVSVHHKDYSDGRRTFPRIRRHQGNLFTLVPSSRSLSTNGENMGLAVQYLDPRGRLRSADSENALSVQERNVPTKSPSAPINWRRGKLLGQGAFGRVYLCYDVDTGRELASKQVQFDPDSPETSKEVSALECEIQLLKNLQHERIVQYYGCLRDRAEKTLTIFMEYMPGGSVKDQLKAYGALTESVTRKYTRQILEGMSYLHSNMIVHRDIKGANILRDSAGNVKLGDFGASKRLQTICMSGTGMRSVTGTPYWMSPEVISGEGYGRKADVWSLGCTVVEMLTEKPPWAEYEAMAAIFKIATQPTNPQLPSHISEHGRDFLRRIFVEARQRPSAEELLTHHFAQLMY
Protocol: as §1

PAK7 = biological target: T9, PAK7 (Homo sapiens, UniProt Q9P286)
T9 construct: purchased ProQinase (Freiburg, Germany)
T9 sequence (Q9P286 whole entry): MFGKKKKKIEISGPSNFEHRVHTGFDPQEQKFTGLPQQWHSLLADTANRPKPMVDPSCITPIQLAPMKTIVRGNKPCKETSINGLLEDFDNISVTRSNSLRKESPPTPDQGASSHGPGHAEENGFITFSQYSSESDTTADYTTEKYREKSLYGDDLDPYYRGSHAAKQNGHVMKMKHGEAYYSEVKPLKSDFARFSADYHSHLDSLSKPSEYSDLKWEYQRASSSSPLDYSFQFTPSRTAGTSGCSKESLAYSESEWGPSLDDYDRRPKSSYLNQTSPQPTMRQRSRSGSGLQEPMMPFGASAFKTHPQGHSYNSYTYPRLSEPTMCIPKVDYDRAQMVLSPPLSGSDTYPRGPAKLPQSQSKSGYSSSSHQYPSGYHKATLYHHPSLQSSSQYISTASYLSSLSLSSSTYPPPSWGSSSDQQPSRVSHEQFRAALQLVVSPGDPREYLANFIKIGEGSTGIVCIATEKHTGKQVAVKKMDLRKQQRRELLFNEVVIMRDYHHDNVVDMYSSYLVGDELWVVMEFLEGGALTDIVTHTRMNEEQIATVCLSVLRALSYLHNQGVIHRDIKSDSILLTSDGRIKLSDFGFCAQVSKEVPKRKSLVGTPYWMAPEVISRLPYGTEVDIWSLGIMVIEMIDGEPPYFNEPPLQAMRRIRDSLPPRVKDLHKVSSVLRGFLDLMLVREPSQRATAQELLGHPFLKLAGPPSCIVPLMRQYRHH
Protocol: as §1

PKA = biological target: T10, PKA (Homo sapiens, UniProt P17612)
T10 construct: purchased ProQinase (Freiburg, Germany)
Protocol: as §1

PKMzeta = biological target: T11, PKMzeta (Homo sapiens, UniProt Q05513)
T11 construct: PKMzeta; purchased ProQinase (Freiburg, Germany)
T11 sequence (Q05513 184-592 limits assumed): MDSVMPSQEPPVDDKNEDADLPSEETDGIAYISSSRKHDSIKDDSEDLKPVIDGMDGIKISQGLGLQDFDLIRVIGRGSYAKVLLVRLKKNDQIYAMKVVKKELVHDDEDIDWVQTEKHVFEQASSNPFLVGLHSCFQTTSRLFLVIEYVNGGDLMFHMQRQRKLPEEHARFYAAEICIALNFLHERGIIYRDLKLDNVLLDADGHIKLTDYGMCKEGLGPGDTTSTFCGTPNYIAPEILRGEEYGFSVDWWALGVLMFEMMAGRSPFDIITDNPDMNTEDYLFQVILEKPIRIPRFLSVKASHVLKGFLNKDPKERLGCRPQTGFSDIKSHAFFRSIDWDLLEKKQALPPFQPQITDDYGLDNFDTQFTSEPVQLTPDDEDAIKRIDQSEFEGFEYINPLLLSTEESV
Protocol: as §1

RPS6KA4 = biological target: T12, RPS6KA4 (Homo sapiens, UniProt O75676)
T12 construct: purchased ProQinase (Freiburg, Germany)
T12 sequence (O75676 whole entry): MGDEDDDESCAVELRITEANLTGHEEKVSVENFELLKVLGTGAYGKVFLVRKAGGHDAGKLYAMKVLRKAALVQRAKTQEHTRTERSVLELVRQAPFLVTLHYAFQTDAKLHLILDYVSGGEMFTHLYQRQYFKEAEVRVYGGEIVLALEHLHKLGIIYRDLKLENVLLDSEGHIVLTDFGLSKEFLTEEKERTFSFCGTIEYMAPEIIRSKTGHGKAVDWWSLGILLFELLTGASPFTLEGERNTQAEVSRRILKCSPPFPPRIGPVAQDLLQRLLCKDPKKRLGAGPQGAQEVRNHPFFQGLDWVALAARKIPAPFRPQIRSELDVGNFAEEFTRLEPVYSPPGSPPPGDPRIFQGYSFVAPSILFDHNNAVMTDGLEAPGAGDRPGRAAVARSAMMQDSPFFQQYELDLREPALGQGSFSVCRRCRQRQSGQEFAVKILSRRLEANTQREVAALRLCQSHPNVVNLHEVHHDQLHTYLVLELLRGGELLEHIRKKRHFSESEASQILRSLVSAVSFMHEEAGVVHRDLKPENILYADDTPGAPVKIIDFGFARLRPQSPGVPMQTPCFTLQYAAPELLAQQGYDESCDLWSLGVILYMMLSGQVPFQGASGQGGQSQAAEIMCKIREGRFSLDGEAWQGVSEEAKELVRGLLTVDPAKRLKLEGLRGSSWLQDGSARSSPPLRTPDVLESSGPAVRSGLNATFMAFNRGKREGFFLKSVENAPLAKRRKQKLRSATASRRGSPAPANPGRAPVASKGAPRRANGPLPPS
Protocol: as §1

S6K = biological target: T13, S6K (Homo sapiens, UniProt P23443)
T13 construct: purchased ProQinase (Freiburg, Germany)
Protocol: as §1

SGK2 = biological target: T14, SGK2 (Homo sapiens, UniProt Q9HBY8)
T14 construct: purchased ProQinase (Freiburg, Germany)
T14 sequence (Q9HBY8 1-367): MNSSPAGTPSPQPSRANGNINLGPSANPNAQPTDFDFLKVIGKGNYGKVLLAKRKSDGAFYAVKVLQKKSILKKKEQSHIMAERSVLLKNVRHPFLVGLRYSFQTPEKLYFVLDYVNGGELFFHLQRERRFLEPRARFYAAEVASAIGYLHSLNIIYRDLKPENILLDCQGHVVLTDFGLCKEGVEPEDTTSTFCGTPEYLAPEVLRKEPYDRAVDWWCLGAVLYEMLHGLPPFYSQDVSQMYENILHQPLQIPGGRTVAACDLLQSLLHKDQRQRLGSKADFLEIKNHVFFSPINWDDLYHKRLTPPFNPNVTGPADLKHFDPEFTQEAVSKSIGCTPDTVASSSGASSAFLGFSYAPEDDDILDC
Protocol: as §1

T1 sequence (Q13557 whole entry): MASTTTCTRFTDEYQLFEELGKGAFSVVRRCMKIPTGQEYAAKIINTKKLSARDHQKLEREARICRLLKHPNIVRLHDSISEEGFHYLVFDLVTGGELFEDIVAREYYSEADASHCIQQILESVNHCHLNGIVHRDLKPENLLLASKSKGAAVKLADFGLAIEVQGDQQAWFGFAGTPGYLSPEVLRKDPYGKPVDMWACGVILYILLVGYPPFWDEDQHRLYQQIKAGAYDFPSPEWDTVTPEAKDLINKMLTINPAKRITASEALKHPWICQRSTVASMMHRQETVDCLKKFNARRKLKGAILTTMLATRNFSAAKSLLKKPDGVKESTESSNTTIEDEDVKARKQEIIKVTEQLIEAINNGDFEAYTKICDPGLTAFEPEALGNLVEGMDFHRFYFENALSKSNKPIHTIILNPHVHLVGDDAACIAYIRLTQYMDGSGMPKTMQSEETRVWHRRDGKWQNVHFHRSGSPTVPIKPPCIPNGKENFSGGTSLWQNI

Structure (SMILES)	Residual activity (CAMK2D; 1.0E-05 M)	Residual activity (CAMK2D; 1.0E-06 M)	Residual activity (CDK4/CycD1; 1.0E-05 M)	Residual activity (CDK4/CycD1; 1.0E-06 M)	Residual activity (CDK6/CycD3; 1.0E-05 M)	Residual activity (CDK6/CycD3; 1.0E-06 M)	Residual activity (DAPK2; 1.0E-05 M)	Residual activity (DAPK2; 1.0E-06 M)	Residual activity (DYRK1B; 1.0E-05 M)	Residual activity (DYRK1B; 1.0E-06 M)	Residual activity (HIPK3; 1.0E-05 M)	Residual activity (HIPK3; 1.0E-06 M)	Residual activity (IGF1R; 1.0E-05 M)	Residual activity (IGF1R; 1.0E-06 M)	Residual activity (MEKK3; 1.0E-05 M)	Residual activity (MEKK3; 1.0E-06 M)	Residual activity (PAK7; 1.0E-05 M)	Residual activity (PAK7; 1.0E-06 M)	inhibition at 10 µM (PKA) [%]	Residual activity (PKA; 1.0E-05 M)	also measured
O=C(Cc1ccccc1)Nc1ccc(F)c(Nc2ccc3c(c2)CCCCC3=O)c1 [Compound 100]	90 % of control	103 % of control	94 % of control	104 % of control	92 % of control	90 % of control	124 % of control	113 % of control	117 % of control	103 % of control	87 % of control	88 % of control	101 % of control	97 % of control	104 % of control	95 % of control	92 % of control	99 % of control	≥ 50	21 % of control	Residual activity (PKA; 1.0E-06 M): 97 % of control; Residual activity (PKMzeta; 1.0E-05 M): 98 % of control; Residual activity (PKMzeta; 1.0E-06 M): 105 % of control; Residual activity (RPS6KA4; 1.0E-05 M): 93 % of control; Residual activity (RPS6KA4; 1.0E-06 M): 93 % of control; Residual activity (S6K; 1.0E-05 M): 92 % of control; Residual activity (S6K; 1.0E-06 M): 102 % of control; Residual activity (SGK2; 1.0E-05 M): 93 % of control; Residual activity (SGK2; 1.0E-06 M): 101 % of control
O=C(Nc1ccc(F)c(Nc2ccc3c(c2)CCCCC3=O)c1)c1cccc(F)c1 [Compound 109]	88 % of control	92 % of control	108 % of control	93 % of control	93 % of control	87 % of control	133 % of control	110 % of control	96 % of control	103 % of control	90 % of control	89 % of control	80 % of control	104 % of control	102 % of control	94 % of control	93 % of control	101 % of control	≥ 50	49 % of control	Residual activity (PKA; 1.0E-06 M): 86 % of control; Residual activity (PKMzeta; 1.0E-05 M): 88 % of control; Residual activity (PKMzeta; 1.0E-06 M): 103 % of control; Residual activity (RPS6KA4; 1.0E-05 M): 95 % of control; Residual activity (RPS6KA4; 1.0E-06 M): 95 % of control; Residual activity (S6K; 1.0E-05 M): 91 % of control; Residual activity (S6K; 1.0E-06 M): 88 % of control; Residual activity (SGK2; 1.0E-05 M): 96 % of control; Residual activity (SGK2; 1.0E-06 M): 97 % of control
